{"source": "ChEMBL document CHEMBL5576048", "about": "“A Second-Generation Oral SARS-CoV-2 Main Protease Inhibitor Clinical Candidate for the Treatment of COVID-19” (J Med Chem, 2024)", "test_system": "SARS-CoV-2", "assay": "Antiviral activity against SARS-CoV-2 Delta variant infected in African green monkey VeroE6/TMPRSS2 cells", "format": "functional, organism-based", "settings": "Severe acute respiratory syndrome coronavirus 2, Delta"}
{"smiles": "CCC(CC)COC(=O)[C@H](C)N[P@](=O)(OC[C@H]1O[C@@](C#N)(c2ccc3c(N)ncnn23)[C@H](O)[C@@H]1O)Oc1ccccc1", "values": [{"measurement": "EC50", "value": 0.161, "unit": "µM"}]}
